# Data published in patent publication US20170101684A1, “METHOD FOR DIAGNOSING AND TREATING MULTIPLE MYELOMA” (Erasmus University Medical Center Rotterdam, priority 2014, published 2017).
# Tests used:
# [1] = system: MM subjects without the amp1q chromosomal aberration; assay: Response of MM patients without amp1q to proteasome inhibitor; type: in vivo, human
# Description: Methods for determining whether a subject with MM has an amp1q chromosomal aberration are known in the art, and any such methods may be used in aspects of this disclosure, although preferred embodiments will be disclosed herein below.
# [2] = system: MM patients with amp1q chromosomal aberration; assay: Overall survival (Kaplan Meier) of MM patients with amp1q by classical FISH, PAD versus VAD; type: in vivo, human; settings: MM patients with an amp1q chromosomal aberration
# Description: FIG. 1: Kaplan Meier curve showing 60 MM patients (see Table 2) identified as having an additional copy of chromosome 1q (amp1q) using classical FISH analysis. […] Upper line: amp1q cases treated with PAD; lower line: amp1q cases treated with VAD. Hazard Ratio=3.59, p=0.0037.
# FIG. 1 provides a Kaplan-Meier curve wherein the top line represents amp1q cases treated with Bortezomib (a proteasome inhibitor), Adriamycin and Dexamethasone (PAD), and the bottom line represents amp1q cases treated with a conventional therapy (Vincristine Adriamycin Dexamethasone or VAD). A Hazard Ratio of 3.59 (p=0.0037) was found. It was concluded that MM patients with amp1q may be preferentially treated with a proteasome inhibitor such as Bortezomib since that provides these patients with a better life expectancy.
# FISH analysis was performed in 304 patients. In nonpurified plasma cell samples (n=125), at least 200 interphase nuclei per sample were analyzed by the use of epi-fluorescence microscopy and image analysis software. Within several cases, a preceding analysis of selected myeloma cells was determined by immunoglobulin light chain counterstaining or morphology. In CD138-purified PC samples (n=179), 100 nuclei were evaluated by the use of an epifluorescence microscope (Leica Microsystems). […]
structure (smiles),measurement,setting,value
CC(C)C[C@H](NC(=O)[C@H](Cc1ccccc1)NC(=O)c1cnccn1)B(O)O [Bortezomib],Response to treatment,[1],do not experience this advantageous response
same,Response to treatment,[2],respond well
